Reference: patent publication US20250262193A1, “Therapeutic Tyrosine Kinase Inhibitors For Multiple Sclerosis and Myasthenia Gravis” (Principia Biopharma Inc., priority 2022, published 2025)
Values belong to the molecule of their own block, whether it stands above or below them.

Experiments:
BCRP = biological target: T1, BCRP (Homo sapiens, UniProt Q9UNQ0); details: in vitro studies; cited from earlier work
T1 sequence (Q9UNQ0 1-655): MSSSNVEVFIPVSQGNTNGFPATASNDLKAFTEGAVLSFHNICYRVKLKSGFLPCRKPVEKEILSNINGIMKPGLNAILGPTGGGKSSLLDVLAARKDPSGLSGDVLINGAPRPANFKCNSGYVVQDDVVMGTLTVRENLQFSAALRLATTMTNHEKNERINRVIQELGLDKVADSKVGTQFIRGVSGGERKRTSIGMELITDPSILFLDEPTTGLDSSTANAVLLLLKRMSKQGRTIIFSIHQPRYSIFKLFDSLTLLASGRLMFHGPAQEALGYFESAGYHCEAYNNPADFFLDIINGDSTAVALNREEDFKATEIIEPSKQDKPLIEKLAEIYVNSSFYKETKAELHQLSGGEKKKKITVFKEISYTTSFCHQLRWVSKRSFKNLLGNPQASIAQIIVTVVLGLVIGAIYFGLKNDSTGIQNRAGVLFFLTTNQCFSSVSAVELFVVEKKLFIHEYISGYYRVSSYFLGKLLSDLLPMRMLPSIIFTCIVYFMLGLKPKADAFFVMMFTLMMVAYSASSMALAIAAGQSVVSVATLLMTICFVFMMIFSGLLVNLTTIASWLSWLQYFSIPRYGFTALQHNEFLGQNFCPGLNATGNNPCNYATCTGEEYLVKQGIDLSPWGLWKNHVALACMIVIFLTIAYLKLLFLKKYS

[1] = following repeated doses of teriflunomide; cited from earlier work
[2] = Drug interaction study INT16385: potent CYP3A4 inhibitor itraconazole, healthy participants; assay type: in vivo, human; details: with potent CYP3A4 inhibitor itraconazole 200 mg once daily for 4 days
[3] = Drug interaction study INT16726: potent CYP2C8 inhibitor gemfibrozil; CYP3A4/CYP2C8 inducer rifampicin, healthy participants; assay type: in vivo, human
Description: (§1) Tolebrutinib is a substrate of the CYP3A4 and CYP2C8 isoenzymes. […] In healthy participants, the potent CYP3A4 and moderate CYP2C8 induction by rifampicin (600 mg once daily for 8 days) decreased tolebrutinib exposure by 6-fold. Therefore, potent and also moderate (based on prediction) CYP3A inducers are not permitted due to their potential to decrease tolebrutinib exposure and efficacy.
(§2) Potent and moderate inducers of CYP3A or potent inhibitors of CYP2C8 hepatic enzymes are not permitted throughout the study (see Appendix 8A [Section 10.8]). • Tolebrutinib: Tolebrutinib is a substrate of the CYP3A4 and CYP2C8 isoenzymes. […] In healthy participants, potent CYP3A4 and moderate CYP2C8 induction by rifampicin (600 mg once daily for 8 days) decreased Tolebrutinib exposure 6-fold (INT16726 study). Therefore, potent and also moderate (based on prediction) CYP3A inducers are not permitted due to their potential to decrease Tolebrutinib exposure and efficacy. See Table 2H for the list of drugs not to be used. • Teriflunomide: Other potent CYP and transporter inducers should be avoided due to their potential to decrease teriflunomide exposure. Rifampicin and other known potent CYP and transporter inducers such as carbamazepine, phenobarbital, phenytoin, avasimibe, lumacaftor, rifapentine, rifabutin, and St John's wort, should be avoided. […]

CYP2C8 = biological target: T2, CYP2C8 (Homo sapiens, UniProt P10632); experiment: Nonclinical drug metabolism studies (CYP substrate); assay type: in vitro ADME
T2 sequence (P10632 1-490): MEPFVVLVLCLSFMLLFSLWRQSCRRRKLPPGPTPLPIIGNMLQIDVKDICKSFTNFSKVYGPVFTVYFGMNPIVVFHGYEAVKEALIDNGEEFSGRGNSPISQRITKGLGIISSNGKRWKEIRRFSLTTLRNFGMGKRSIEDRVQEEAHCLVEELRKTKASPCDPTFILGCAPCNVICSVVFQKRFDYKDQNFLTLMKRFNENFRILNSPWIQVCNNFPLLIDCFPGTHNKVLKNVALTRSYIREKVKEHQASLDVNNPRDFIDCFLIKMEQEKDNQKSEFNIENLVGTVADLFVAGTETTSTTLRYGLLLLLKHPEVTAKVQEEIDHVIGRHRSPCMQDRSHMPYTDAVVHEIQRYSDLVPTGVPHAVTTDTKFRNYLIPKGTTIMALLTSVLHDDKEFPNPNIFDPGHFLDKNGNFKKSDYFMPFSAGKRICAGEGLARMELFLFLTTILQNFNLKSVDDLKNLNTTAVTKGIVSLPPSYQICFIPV
Description: as §1, §2

CYP3A4 = CYP3A4 (Homo sapiens, UniProt P08684); experiment: as above; assay type: in vitro ADME
Chain of CYP3A4 (P08684 whole entry): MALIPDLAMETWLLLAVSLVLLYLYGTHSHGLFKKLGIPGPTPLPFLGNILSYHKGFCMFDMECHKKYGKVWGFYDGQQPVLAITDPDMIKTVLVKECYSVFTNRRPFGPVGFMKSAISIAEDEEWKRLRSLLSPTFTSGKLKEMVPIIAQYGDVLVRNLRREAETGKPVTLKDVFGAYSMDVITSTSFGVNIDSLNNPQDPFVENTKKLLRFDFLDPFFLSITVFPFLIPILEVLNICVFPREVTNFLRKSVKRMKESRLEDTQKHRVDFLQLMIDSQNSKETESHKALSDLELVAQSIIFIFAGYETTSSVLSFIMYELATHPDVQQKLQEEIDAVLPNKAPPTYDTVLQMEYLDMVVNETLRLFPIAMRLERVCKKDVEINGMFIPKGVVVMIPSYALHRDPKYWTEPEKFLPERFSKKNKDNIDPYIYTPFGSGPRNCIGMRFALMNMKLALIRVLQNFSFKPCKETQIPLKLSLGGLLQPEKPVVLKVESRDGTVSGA
Description: as §1, §2

[4] = Study TDR16862: up to 240 mg once daily for 14 days under fed conditions, healthy participants; assay type: in vivo, human
Description: as §1, §2

[5] = Phase 2b dose-finding trial DRI15928 in participants with relapsing multiple sclerosis; assay type: in vivo, human; details: for alanine aminotransferase (ALT): 1 participant, normal range 6 to 34 U/L; for time for ALT to return to normal range: treatment continued
Text: All safety summaries will be descriptive; no statistical significance tests will be performed on safety data. This includes treatment-emergent adverse events (TEAEs) and other safety information (eg, clinical laboratory evaluations, electrocardiograms [ECGs], and vital signs). TEAEs are defined as adverse events (AEs) that developed or worsened or became serious during the treatment period. These analyses will be based on the safety population, defined as all participants randomly assigned and exposed to study intervention, regardless of the amount of exposure, analyzed according to the treatment actually received. • Two participants had treatment-emergent transient alanine aminotransferase (ALT) increase >3×ULN, 1 during the 30 mg SAR442168 treatment period (at Week 8, 105 U/L [normal range 6 to 34 U/L]) that returned to normal range within 4 days and 1 during the 60 mg SAR442168 treatment period (at Week 4, 107 U/L [normal range 6 to 34 U/L]). The participant in the 60 mg group had slightly elevated ALT at screening (48 U/L) and at baseline (50 U/L); ALT levels returned to the normal range in 8 weeks. Both participants continued study treatment during this period. All other liver enzyme levels for both participants were within normal ranges during the treatment period; one event was assessed as related and one as unrelated to the study drug by the Investigators. Both participants completed the DRI15928 study and successfully rolled over to the LTS follow-up study. • One event of mild petechia in a participant (at Week 8 in the SAR442168 30 mg group) and 2 events of mild microscopic hematuria in 2 male participants (1 event at Week 16 in the SAR442168 30 mg group and 1 event on Day 1 in the SAR442168 60 mg group, with occult blood noted in urine) were reported during the treatment period in the SAR442168 Phase 2b trial. The hematology results were clinically insignificant for all 3 participants from the onset of the events. The participant with mild petechia had benign pigmentary lesions noted during screening, and the event was assessed as related to the study drug by the Investigator. The 2 events of mild microscopic hematuria were assessed as unrelated to the study drug.
The choice of the dose of 60 mg of the BTK inhibitor taken with food is based on the results of a Phase 2b dose-finding trial for tolebrutinib in participants with relapsing multiple sclerosis (DRI15928). See for example, Reich, D. S., et al., Safety and efficacy of tolebrutinib, an oral brain-penetrant BTK inhibitor, in relapsing multiple sclerosis: a phase 2b, randomised, double-blind, placebo-controlled trial. Lancet Neurol, 2021. 20(9): p. 729-738.
There were low numbers of AESIs and PCSAs observed.

[6] = Ongoing Phase 3 and LTS studies: safety (drug-induced liver injury); assay type: in vivo, human
Text: Drug-induced liver injury has been identified in the ongoing tolebrutinib Phase 3 trials. […] Thus, there is a need to mitigate the risk of hepatic injury and provide safe treatment for patients with MS or MG.
All safety summaries will be descriptive; no statistical significance tests will be performed on safety data. This includes treatment-emergent adverse events (TEAEs) and other safety information (eg, clinical laboratory evaluations, electrocardiograms [ECGs], and vital signs). TEAEs are defined as adverse events (AEs) that developed or worsened or became serious during the treatment period. These analyses will be based on the safety population, defined as all participants randomly assigned and exposed to study intervention, regardless of the amount of exposure, analyzed according to the treatment actually received. • Two participants had treatment-emergent transient alanine aminotransferase (ALT) increase >3×ULN, 1 during the 30 mg SAR442168 treatment period (at Week 8, 105 U/L [normal range 6 to 34 U/L]) that returned to normal range within 4 days and 1 during the 60 mg SAR442168 treatment period (at Week 4, 107 U/L [normal range 6 to 34 U/L]). […] All other liver enzyme levels for both participants were within normal ranges during the treatment period; one event was assessed as related and one as unrelated to the study drug by the Investigators. […]

[7] = Blood-brain barrier crossing

Structure (SMILES): C/C(O)=C(\C#N)C(=O)Nc1ccc(C(F)(F)F)cc1 [teriflunomide]
substrate of the efflux transporter BCRP (BCRP): substrate | ethinylestradiol and levonorgestrel exposure [1]: Increase

increase of area under the curve (AUC) exposure [2]: 1.8 fold | decrease of exposure ([3]; potent CYP3A4 and moderate CYP2C8 induction by rifampicin 600 mg once daily for 8 days): 6 fold | increase of AUC exposure ([3]; with potent CYP2C8 inhibitor gemfibrozil 600 mg twice daily for 6 days): 8.4 fold | substrate of CYP2C8 isoenzyme (CYP2C8): substrate | substrate of CYP3A4 isoenzyme (CYP3A4): substrate | events of mild microscopic hematuria ([5]; 2 male participants: Week 16 in 30 mg group, Day 1 in 60 mg group, resolved spontaneously): 2 events | AESIs and PCSAs observed ([5]; Phase 2b): low numbers | new risks identified ([5]; Phase 2b): no new risks were identified | severe infections ([5]; Phase 2b treatment period): No severe infections occurred | food effect: increase in AUC0-24 ([5]; fed status, Phase 2b PK data): approximately 2 fold | events of mild petechia ([5]; female participant, Week 8, 30 mg group, resolved spontaneously): One | cytopenia, including thrombocytopenia and neutropenia ([5]; hematologic laboratory results): No clinically significant cytopenia | blood-brain barrier crossing [7]: crosses the blood-brain barrier
Structure (SMILES): C=CC(=O)N1CCC[C@@H](n2c(=O)n(-c3ccc(Oc4ccccc4)cc3)c3c(N)nccc32)C1 [tolebrutinib, (R)-1-(1-acryloylpiperidin-3-yl)-4-amino-3-(4-phenoxyphenyl)-1H-imidazo[4,5-c]pyridin-2(3H)-one]
safety and tolerability profile [4]: satisfactory | alanine aminotransferase (ALT) ([5]; 30 mg treatment period, Week 8): 105 U/L | alanine aminotransferase (ALT) ([5]; 60 mg treatment period, Week 4, 48 U/L at screening, 50 U/L at baseline): 107 U/L | cardiac arrhythmia ([5]; ECG monitoring): no clinically significant cardiac arrhythmia was observed | correlation between dose administered and number of TEAEs ([5]; Phase 2b): no correlation | most frequently reported infections (≥3 events total) ([5]; Phase 2b treatment period): upper respiratory tract infection, nasopharyngitis, gastroenteritis, and respiratory tract infection | participants with treatment-emergent transient ALT increase >3×ULN ([5]; Phase 2b, 1 at 30 mg, 1 at 60 mg): Two | correlation between treatment response and exposure ([5]; new gadolinium-enhancing T1-hyperintense lesions after 12 weeks of treatment): higher exposure was associated with low numbers of new gadolinium-enhancing T1-hyperintense lesions | time for ALT to return to normal range ([5]; participant of the 30 mg treatment period): ≤ 4 days | time for ALT to return to normal range ([5]; participant of the 60 mg group): 8 weeks | most common events (preferred terms) ([5]; tolebrutinib treatment arms, Phase 2b): headache, upper respiratory tract infection, and nasopharyngitis | tolerability ([6]; ongoing Phase 3 and LTS studies, to date): generally well tolerated | reversibility of DILI / liver enzyme elevation after treatment discontinuation ([6]; ongoing Phase 3 trials): appear reversible
